Experimental data: patent US20120220548A1, “Compositions and methods for treatment of virus-associated cancer cells” (priority 2011, published 2012)
pIC50: −log10 of the molar value.

How the values were obtained:
[1] = test system: BCBL-1 cells; conditions: 3 weeks
Experimental: Mice were injected with 2×10^7 BCBL-1 cells and were weighed as a function of time every week for 3 weeks, to assess tumor growth. […] The weight is shown on the ordinate and time in days on the abscissa.
Mice were injected with 2×10^7 BCBL-1 cells (a strain of PEL cells) and were weighed as a function of time every week for three weeks, to assess tumor growth. Weight was compared to control mice not receiving BCBL-1 cells.

[2] = test system: BCBL-1 primary effusion lymphoma (PEL) cells; assay: rapamycin cell killing of BCBL-1 PEL cells in culture with or without oHA (relative cell viability); assay type: cell-based, human
Experimental: The cells used are the PEL strain known as body cavity-based lymphoma-1 (BCBL-l; diamonds and squares). The squares indicate data from cells to which oHA was added along with rapamycin.
Cell viability was assessed using both MTT and Trypan blue exclusion assays as described in Qin Z, et al. PLoS Pathog 2010; 6(1): e1000742. For MTT assays, a total of 5×10^3 PEL cells were incubated individual wells of a 96-well plate for 24 hours. Serial dilutions of paclitaxel, doxorubicin or oHAs were added and subsequently incubated in 1 mg/ml MTT solution (Sigma-Aldrich) at 37° C. for 3 hours. Thereafter, cells were incubated in 50% dimethylsulfoxide overnight and optical densities determined at 570 nm using a spectrophotometer (Thermo Labsystems, West Palm Beach, Fla., USA). For Trypan blue exclusion assays, cells were incubated with 0.4% Trypan blue (MP Biomedicals, Northbrook, Ill., USA) and observed under light microscopy. Relative cell viability was determined after assessment of at least 1000 cells per condition for each experiment using the following formula: (no. of live cells/no. of total cells for experimental conditions)/ (no. of live cells/no. of total cells for vehicle-treated control cells). […]

[3] = doxorubicin 0.2 mg/kg intraperitoneally

COc1cccc2c1C(=O)c1c(O)c3c(c(O)c1C2=O)C[C@@](O)(C(=O)CO)C[C@@H]3O[C@H]1C[C@H](N)[C@H](O)[C@H](C)O1 [doxorubicin]
effect on progress of lymphoma (weight gain) ([1]; doxorubicin 0.2 mg/kg i.p., oHA 0.5 mg/kg i.p.): only slightly reduced the increase in weight | tumor-associated weight gain [1, 3]: 4 to 7 g | tumor-associated weight gain from baseline weight of 25-28g [1, 3]: approximately 35%

CO[C@H]1C[C@@H]2CC[C@@H](C)[C@@](O)(O2)C(=O)C(=O)N2CCCC[C@H]2C(=O)O[C@H]([C@H](C)C[C@@H]2CC[C@@H](O)[C@H](OC)C2)CC(=O)[C@H](C)/C=C(\C)[C@@H](O)[C@@H](OC)C(=O)[C@H](C)C[C@H](C)/C=C/C=C/C=C/1C [rapamycin]
survival (relative cell viability) ([2]; 1 nM rapamycin, this agent alone): greater than 0.95 | pIC50 ([2]; Homo sapiens, BCBL1, read-out: concentration of rapamycin giving cell death of about half the cells, rapamycin alone): 7.70 to 8.00
